We go through 30 compounds from patent US9150555B2, “Amide derivative and use thereof” (Mitsubishi Tanabe Pharma Corporation, priority 2010, dated 2015).

Data set [1] concerns IL-17 production of mouse spleen cells stimulated by rm-IL-23. Description: Production of IL-17 induced when mouse spleen cells were stimulated by recombinant mouse interleukin-23 (rm-IL-23). Type of data set: cell-based. The note with it: inhibition of IL-17 production, DBA/1J mouse spleen cells, rm-IL-23 1 nmol/L, ELISA. Here is the method: Effect on Production of IL-17 Induced when Mouse Spleen Cells were Stimulated by Recombinant Mouse Interleukin-23 (rm-IL-23)
An RPMI1640 (Sigma-Aldrich) was used as a medium, to which penicillin G potassium (50 units/mL; Gibco), streptomycin (50 μg/mL; Gibco) and 2-mercaptoethanol (50 μmol/l; Sigma-Aldrich) were added, and then 10% of fetal calf serum (FCS; Cell Culture Technology) inactivated at 56° C. for 30 minutes was added and used in the Test. The test compound was dissolved in dimethylsulfoxide and diluted with 10% FCS-containing RPMI1640 medium to a desired concentration and used in the test. The spleens were aseptically taken out from 6-7 week-old male DBA/1J mice (Charles River Japan, Inc.) and a single cell suspension of spleen cells was prepared and hemolyzed by hypotonic treatment with a mixture of 0.83% aqueous solution of ammonium chloride and Tris-HCl buffer of pH 7.65 (9:1). A cell suspension prepared by 10% FCS-containing RPMI1640 medium was added to flat-bottomed 96 well microtestplate at 2×10^5 cells/well. Test compounds and rm-IL-23 (R&D systems) were diluted with a medium to 1 to 1,000 nmol/L, and 1 nmol/L of the final concentration respectively, which were added and cultured at 37° C., 5% carbon dioxide and 95% air for 72 hours. After completion of the culture, culture supernatant was sampled and an amount of IL-17 production was determined by ELISA method. After sampling the supernatant, WST-8 (Seikagaku Corporation) was added at 10 μl/well and cultured at 37° C., 5% carbon dioxide and 95% air for 4 hours. Then, absorbance (O.D.: Optical Density) at 450 nm was measured by a microplate reader and the value was adopted as an index of cell survivability. An inhibition rate (%) was calculated according to the following formula on the basis of an average of an amount of IL-17 production and a O.D. values of the well containing a test compound of each concentration.
Based on the dose-response curve obtained by plotting the inhibition rate in the longitudinal axis and concentration in the horizontal axis, the concentration of the compound which inhibits the level to 50% of the value of the control group (IC50; nmol/L) was determined by linear regression analysis. The results was shown in the next Table 1
(An ELISA detects its analyte on a solid surface through an enzyme-linked reagent.)

The target in the next data set is hERG (Homo sapiens, UniProt Q12809). Nature of the data set: Effects on hERG current (whole-cell clamping). To be noted: human, HEK 293 cells that express hERG.
Where [2] appears, read: pH 7.4, hERG inhibition rate (%) (1 μM), 1 μM, tail peak current, hERG-expressed HEK 293 cells.

Counter-ions that a name gives are not always drawn.

Sequence of hERG (Q12809 whole entry): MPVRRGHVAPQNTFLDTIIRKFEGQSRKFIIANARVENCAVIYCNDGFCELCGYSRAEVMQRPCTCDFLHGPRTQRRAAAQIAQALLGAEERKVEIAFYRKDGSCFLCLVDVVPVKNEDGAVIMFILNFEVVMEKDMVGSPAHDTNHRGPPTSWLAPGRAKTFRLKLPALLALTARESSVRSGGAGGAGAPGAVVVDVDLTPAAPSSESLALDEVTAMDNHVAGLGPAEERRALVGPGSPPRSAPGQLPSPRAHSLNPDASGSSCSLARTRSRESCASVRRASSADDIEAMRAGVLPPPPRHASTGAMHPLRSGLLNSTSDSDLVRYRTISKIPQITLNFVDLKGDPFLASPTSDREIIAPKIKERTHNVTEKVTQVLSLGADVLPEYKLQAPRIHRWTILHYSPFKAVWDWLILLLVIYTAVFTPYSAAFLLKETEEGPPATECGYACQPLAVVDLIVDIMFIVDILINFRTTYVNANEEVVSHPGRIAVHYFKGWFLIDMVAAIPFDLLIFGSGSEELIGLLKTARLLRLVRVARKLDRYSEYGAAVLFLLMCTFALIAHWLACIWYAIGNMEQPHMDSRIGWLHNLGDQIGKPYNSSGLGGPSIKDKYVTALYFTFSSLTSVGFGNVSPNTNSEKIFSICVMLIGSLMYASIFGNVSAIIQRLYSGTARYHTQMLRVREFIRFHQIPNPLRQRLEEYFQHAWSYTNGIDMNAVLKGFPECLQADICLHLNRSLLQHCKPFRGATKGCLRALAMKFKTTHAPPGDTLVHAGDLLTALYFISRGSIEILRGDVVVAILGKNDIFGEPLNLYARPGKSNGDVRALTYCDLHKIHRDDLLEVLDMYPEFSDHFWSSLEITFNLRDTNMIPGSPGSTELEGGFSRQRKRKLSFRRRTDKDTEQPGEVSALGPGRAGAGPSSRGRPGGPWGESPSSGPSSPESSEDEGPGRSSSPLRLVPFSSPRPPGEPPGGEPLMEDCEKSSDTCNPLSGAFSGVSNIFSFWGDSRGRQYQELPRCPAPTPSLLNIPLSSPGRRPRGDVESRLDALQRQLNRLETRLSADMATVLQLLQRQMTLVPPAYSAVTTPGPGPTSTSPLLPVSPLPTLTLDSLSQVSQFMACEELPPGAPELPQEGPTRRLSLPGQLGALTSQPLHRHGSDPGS
Description for hERG: Dimethylsulfoxide was used as a vehicle and hERG-expressed HEK 293 cells (Cytomyx) were used as test cells. Test cells were once cultured and subdivided and were stored under frozen condition in liquid nitrogen. In the study, thawed and subcultured cells having less than 30 of the passage number were used. Test cells were cultured in a carbon dioxide incubator BNP-110M (Tabai Espec Corp.) at 37±1° C., and 5.0±0.5% of carbon dioxide concentration. The component of culture medium was MEM (Minimum Essential Medium) supplemented with 10 vol % fetal bovine serum (non-activated), 1 mmol/L sodium pyruvate, 0.1 mmol/L non-essential amino acid, 100 U/mL penicillin with 100 μg/mL streptomycin. To select gene-expressing cells, 400 μg/mL G418 Sulphate (Invitrogen) was added to the culture medium. In the dishes for the measurement, the medium which not contain G418 Sulphate (Invitrogen) was used.
As to seeding of cells for measurement, subcultured cells which became confluent were treated with 0.25% trypsin-solution containing 1 mmol/L EDTA (Invitrogen) to remove from the plate, and seeded on sterilized collagen-coated cover glass (Iwaki, AGC Techno Glass Co., LTD). The medium was exchanged appropriately, including the day of measurement.
A perfusion method was applied to the experiment. Test cells were perfused (perfusion speed: approximately 4 mL/min) with an external solution containing specified concentrations of test compounds (component of external solution: 137 mmol/L of sodium chloride, 4 mmol/L of potassium chloride, 10 mmol/L of HEPES, 1.8 mmol/L of calcium chloride, 1 mmol/L of magnesium chloride and 10 mmol/L of glucose; adjusted to pH 7.4±0.1 with sodium hydroxide aqueous solution). […] When effects were observed, the perfusion was continued until the maximum response was observed. […] The data were obtained from one experiment or more and the cells which were incubated in a carbon dioxide incubator after seeding and attached to cover slips were used for the measurement.
A whole-cell clamping method was applied to the measurement. Test cells were perfused (perfusion speed: approximately 4 mL/min) with an external solution (component of external solution: 137 mmol/L of sodium chloride, 4 mmol/L of potassium chloride, 10 mmol/L of HEPES, 1.8 mmol/L of calcium chloride, 1 mmol/L of magnesium chloride and 10 mmol/L of glucose; adjusted to pH 7.4±0.1 with sodium hydroxide aqueous solution). A glass electrode with a resistance of 2 to 6 MΩ, filled with an internal solution (component: 130 mmol/L of potassium chloride, 1 mmol/L of magnesium chloride, 5 mmol/L of EGTA, 10 mmol/L of HEPES and 5 mmol/L of ATP adjusted to pH 7.2±0.1 with sodium hydroxide aqueous solution) was used. After rupturing cell membrane with glass electrode, the cell membrane voltage was held at −80 mV via a patch clamp software (pCLAMP9 [Axon CNS], Molecular Devices) using patch clamp amplifier (EPC8, HEKA). […] Test cells and the cell-attached cover glass were changed every treatment. Temperature of the fluid in a perfusion fluid tank was 24±2° C.
The obtained current was recorded on a computer via a patch clamp amplifier using patch clamp software. An evaluation item was a tail peak current.
A tail peak current was analyzed using analyzing software (Clampfit 9 [Axon CNS], MolecularDevices). Each 2 pulses of before and after perfusion of test compound for each concentration was analyzed, and a peak values of the tail current on the pulses were determined. The inhibition ratio was determined according to the following equation:

For orientation: IC50 means the concentration needed to halve the response being measured. The term inhibition denotes the share of the control response that was lost under treatment. Lower therefore signals little suppression. As for `Cc1cc(NC(=O)c2cnn(-c3ccc(C(F)(F)F)cn3)c2C)cnc1C1CCC2(CC1)OCCO2` [Example D238], the IC50 in data set [1] (Mus musculus, 72 h) was found to be 0.0491 µM. At hERG (setting [2]), this compound showed an inhibition at 1 µM of 5%.

Take `Cc1cc(NC(=O)c2cnn(-c3ccc(C(F)(F)F)cn3)c2C)cnc1C1=CCC(N(C)C(=O)OC(C)(C)C)CC1` (stereo not drawn) [Example D249, N-methyl-{4-[3-methyl-5-({5-methyl-1-[5-(trifluoromethyl)pyridin-2-yl]-1H-pyrazole-4-carbonyl}-amino)pyridin-2-yl]cyclohex-3-en-1-yl}carbamoic acid carbamic acid tert-butyl ester]: in data set [1] (Mus musculus, 72 h), the IC50 stood at 0.131 µM. Also, testing at 1 µM on hERG (setting [2]) gave an inhibition of 36.9%.

On to `Cc1c(C(=O)Nc2ccc([C@]3(C#N)CC[C@@](C)(O)CC3)nc2)cnn1-c1ccc(C(F)(F)F)cn1` [Example D254], for which the IC50 in data set [1] (Mus musculus, 72 h) amounted to 0.146 µM. Further, the inhibition at 1 µM at hERG (setting [2]) amounted to 6.6%.

`Cc1cc(NC(=O)c2cnn(-c3ccc(F)cc3)c2C)cnc1C1=CCC(N(C)C(=O)C(C)(C)C)CC1` (stereo not drawn) [Example D260]: the IC50 in data set [1] (Mus musculus, 72 h) stood at 0.00402 µM. At hERG (setting [2]), this compound had an inhibition at 1 µM of 16.8%.

`Cc1ccc(-n2ncc(C(=O)Nc3cnc(C4=CCC(N(C)C(=O)C(C)(C)C)CC4)c(C)c3)c2C)nc1` (stereo not drawn) [Example D264]: the IC50 in data set [1] (Mus musculus, 72 h) came to 0.0174 µM. Besides, at hERG (setting [2]), the inhibition at 1 µM amounted to 7.5%.

On to `Cc1cc(NC(=O)c2cnn(-c3ccc(C(F)(F)F)cn3)c2C)cnc1C1=CCC(N(C)C(=O)C(F)(F)F)CC1` (stereo not drawn) [Example D265, 5-Methyl-N-(5-methyl-6-{4-[N-methyl-N-(2,2,2-trifluoroacetyl)amino]cyclohex-1-en-1-yl}pyridin-3-yl)-1-[5-(trifluoromethyl)pyridin-2-yl]-1H-pyrazole-4-carboxamide], for which, in data set [1] (Mus musculus, 72 h), the IC50 was found to be 0.00491 µM. The same compound gave an inhibition at 1 µM on hERG (setting [2]) of 35.9%.

As for `Cc1cc(NC(=O)c2cnn(-c3ccc(C(F)(F)F)cn3)c2C)cnc1C1=CCC(C(=O)NC(C)(C)C)CC1` (stereo not drawn) [Example D268], the IC50 in data set [1] (Mus musculus, 72 h) is 0.155 µM. On hERG (setting [2]), the inhibition at 1 µM is 9.8%.

Consider `Cc1cc(NC(=O)c2cnn(-c3ccc(C4CC4)cn3)c2C)cnc1C1=CCC(C(=O)NC(C)(C)C)CC1` (stereo not drawn) [Example D269], for which, in data set [1] (Mus musculus, 72 h), the IC50 amounted to 0.207 µM. Further, the inhibition at 1 µM against hERG (setting [2]) was 14.1%.

Take `Cc1c(C(=O)Nc2ccc([C@]3(C#N)CC[C@]4(C=CCO4)CC3)nc2)cnn1-c1ccc(C(F)(F)F)cn1` [Example D270]: the IC50 in data set [1] (Mus musculus, 72 h) is 0.0558 µM. Besides, 1 µM produced 0.5% inhibition on hERG (setting [2]).

For `CC[C@]1(O)CC[C@](C#N)(c2ccc(NC(=O)c3cnn(-c4ccc(Cl)cc4)c3C)cn2)CC1` [Example D275], the IC50 in data set [1] (Mus musculus, 72 h) worked out at 0.0553 µM. On hERG (setting [2]), this compound gave an inhibition at 1 µM of 14.4%.

With `CC[C@]1(O)CC[C@](C#N)(c2ccc(NC(=O)c3cnn(-c4ccc(C(F)(F)F)cn4)c3C)cn2)CC1` [Example D276], the IC50 in data set [1] (Mus musculus, 72 h) is 0.0712 µM. 1 µM produced 8.9% inhibition at hERG (setting [2]).

`Cc1c(C(=O)Nc2ccc([C@]3(C#N)CC[C@]4(CCCO4)CC3)nc2)cnn1-c1ccc(C(F)(F)F)cn1` [Example D278, N-[6-(c-8-Cyano-r-1-oxaspiro[4.5]decan-8-yl)pyridin-3-yl]-5-methyl-1-[5-(trifluoromethyl)-pyridin-2-yl]-1H-pyrazole-4-carboxamide]: the IC50 in data set [1] (Mus musculus, 72 h) was found to be 0.0502 µM. The compound further registered an inhibition at 1 µM against hERG (setting [2]) of 13.6%.

On to `Cc1ccc(-n2ncc(C(=O)Nc3ccc([C@]4(C#N)CC[C@]5(CCCO5)CC4)nc3)c2C)cc1` [Example D279], for which the IC50 in data set [1] (Mus musculus, 72 h) was 0.112 µM. On hERG (setting [2]), this compound showed an inhibition at 1 µM of 12.8%.

Consider `Cc1c(C(=O)Nc2cnc(C3=CCC(N4CCOCC4)CC3)c(F)c2)cnn1-c1ccc(C(F)(F)F)cn1` (stereo not drawn) [Example D282], for which the IC50 in data set [1] (Mus musculus, 72 h) is 0.174 µM. At hERG (setting [2]), this compound gave an inhibition at 1 µM of 11.9%.

`Cc1c(C(=O)Nc2ccc([C@]3(C#N)CC[C@@H](N(C)C(=O)C(C)(C)C)CC3)nc2)cnn1-c1ccc(C(F)(F)F)cn1` [Example D288, N-(6-{r-1-Cyano-c-4-[N-(2,2-dimethylpropanoyl)-N-methylamino]cyclohexan-1-yl}pyridin-3-yl)-5-methyl-1-[5-(trifluoromethyl)pyridin-2-yl]-1H-pyrazole-4-carboxamide]: in data set [1] (Mus musculus, 72 h), the IC50 turned out to be 0.00538 µM. On hERG (setting [2]), this compound showed an inhibition at 1 µM of 5.9%.

Consider `Cc1c(C(=O)Nc2ccc([C@]3(C#N)CC[C@@H](N(C)C(=O)C(C)C)CC3)nc2)cnn1-c1ccc(C(F)(F)F)cn1` [Example D289, N-{6-[r-1-Cyano-c-4-(N-isobutyryl-N-methylamino)cyclohexan-1-yl]pyridin-3-yl}-5-methyl-1-[5-(trifluoromethyl)pyridin-2-yl]-1H-pyrazole-4-carboxamide], for which, in data set [1] (Mus musculus, 72 h), the IC50 came out at 0.0872 µM. 1 µM produced 11.6% inhibition against hERG (setting [2]).

For `Cc1nc(-n2ncc(C(=O)Nc3ccc([C@]4(C#N)CC[C@@H](N5CCOCC5)CC4)nc3)c2C)ccc1C(F)(F)F` [Example D299], in data set [1] (Mus musculus, 72 h), the IC50 turned out to be 0.112 µM. This compound returned an inhibition at 1 µM against hERG (setting [2]) of 40.6%.

As to `CC(C)c1c(C(=O)Nc2ccc([C@]3(C#N)CC[C@@H](N4CCOCC4)CC3)nc2)cnn1-c1ccc(C(F)(F)F)cn1` [Example D300, N-{6-[r-1-Cyano-c-4-(morpholin-4-yl)cyclohexyl]pyridin-3-yl}-5-isopropyl-1-[5-(trifluoromethyl)pyridin-2-yl]-1H-pyrazole-4-carboxamide], the IC50 in data set [1] (Mus musculus, 72 h) turned out to be 0.182 µM. The compound further had an inhibition at 1 µM against hERG (setting [2]) of 26.1%.

For `Cc1c(C(=O)Nc2ccc(C3=CCC(N4CCOCC4)CC3)nc2)cnn1-c1ccc(C(F)(F)F)cn1` (stereo not drawn) [Example E1, 5-Methyl-N-{6-[4-(morpholin-4-yl)cyclohex-1-en-1-yl]pyridin-3-yl}-1-[5-(trifluoromethyl)-pyridin-2-yl]-1H-pyrazole-4-carboxamide mesylate], in data set [1] (Mus musculus, 72 h), the IC50 amounted to 0.0623 µM. This compound showed an inhibition at 1 µM at hERG (setting [2]) of 34.7%.

Regarding `Cc1c(C(=O)Nc2ccc([C@]3(O)CC[C@@H](N4CCOCC4)CC3)nc2)cnn1-c1ccc(C(F)(F)F)cn1` [Example E2, N-{6-[r-1-Hydroxy-c-4-(morpholin-4-yl)cyclohexyl]pyridin-3-yl}-5-methyl-1-[5-(trifluoromethyl)pyridin-2-yl]-1H-pyrazole-4-carboxamide], the IC50 in data set [1] (Mus musculus, 72 h) came out at 0.179 µM. Further, on hERG (setting [2]), the inhibition at 1 µM is 24.4%.

On to `Cc1c(C(=O)Nc2ccc(C3(C#N)CCC4(CC3)OCCO4)nc2)cnn1-c1ccc(C(F)(F)F)cc1` [Example E6], for which the IC50 in data set [1] (Mus musculus, 72 h) turned out to be 0.0285 µM. Moreover, the inhibition at 1 µM at hERG (setting [2]) stood at 36.9%.

As to `N#CC1(c2ccc(NC(=O)c3ccc(-c4ccc(Cl)cc4)o3)cn2)CCC2(CC1)OCCO2` [Example E18], the IC50 in data set [1] (Mus musculus, 72 h) came to 0.0504 µM. The same compound displayed an inhibition at 1 µM at hERG (setting [2]) of 8.8%.

`Cc1c(C(=O)Nc2ccc(C3CCC(=O)CC3)nc2)cnn1-c1ccc(F)cc1F` [Example E21]: the IC50 in data set [1] (Mus musculus, 72 h) worked out at 0.18 µM. The inhibition at 1 µM at hERG (setting [2]) is 8.3%.

Take `Cc1ccc(-n2ncc(C(=O)Nc3ccc(C4CCC(=O)CC4)nc3)c2C)cc1` [Example E22]: the IC50 in data set [1] (Mus musculus, 72 h) came out at 0.328 µM. The same compound yielded an inhibition at 1 µM at hERG (setting [2]) of 2.7%.

In the case of `Cc1cc(NC(=O)c2cnn(-c3ccc(C(F)(F)F)cc3)c2C)cnc1C1=CCOCC1` [Example E30, N-[6-(3,6-Dihydro-2H-pyran-4-yl)-5-methylpyridin-3-yl]-5-methyl-1-[4-(trifluoromethyl)-phenyl]-1H-pyrazole-4-carboxamide], in data set [1] (Mus musculus, 72 h), the IC50 was 0.149 µM. On hERG (setting [2]), this compound showed an inhibition at 1 µM of 10.7%.

Turning to `Cc1c(C(=O)Nc2ccc(C3(C#N)CCC(=O)CC3)nc2)cnn1-c1ccc(C(F)(F)F)cn1` [Example F2, N-[6-(1-Cyano-4-oxocyclohexyl)pyridin-3-yl]-5-methyl-1-[5-(trifluoromethyl)pyridin-2-yl]-1H-pyrazole-4-carboxamide hydrochloride], the IC50 in data set [1] (Mus musculus, 72 h) came to 0.0534 µM. The same compound gave an inhibition at 1 µM against hERG (setting [2]) of 22.4%.

For `Cc1c(C(=O)Nc2ccc(C3(C#N)CCC(=O)CC3)nc2)cnn1-c1ccc(F)cc1` [Example F6], in data set [1] (Mus musculus, 72 h), the IC50 is 0.107 µM. Moreover, at 1 µM the inhibition at hERG (setting [2]) was 6.8%.

As for `Cc1c(C(=O)Nc2ccc(C3(C#N)CCC(=O)CC3)nc2)cnn1-c1ccc(Cl)c(Cl)c1` [Example F8], in data set [1] (Mus musculus, 72 h), the concentration for half-maximal inhibition (IC50) is 0.0616 µM. Testing at 1 µM at hERG (setting [2]) gave an inhibition of 15.4%.

Consider `Cc1c(C(=O)Nc2ccc(C3(C#N)CCC(=O)CC3)nc2)cnn1-c1ccc(F)c(F)c1` [Example F10], for which the IC50 in data set [1] (72 hours) came out at 0.278 µM. Further, at 1 µM the inhibition at hERG (pH 7.4) was 8%.

As for `Cc1c(C(=O)Nc2ccc(C3CCC(=O)CC3)nc2)cnn1-c1ccc(C(C)(C)C)cc1` [Example F26], the IC50 in data set [1] (Mus musculus, 72 h) was 0.321 µM. For the same compound, the inhibition at 1 µM at hERG (setting [2]) was determined as 8.1%.
